According to US12540131B2 (Merck Sharp & Dohme LLC, priority 2019, dated 2026):

Biological target: GST tagged truncated human mutant G2019S LRRK2 (Homo sapiens (Human), UniProt Q5S007, G2019S)
Assay: LRRK2 Km ATP LanthaScreen Assay
Assay type: biochemical
Conditions: G2019S LRRK2, 134 μM ATP (Km ATP), mean values; for IC50: read-out: LRRK2 pIC50 (converted)
Method: General Experimental Information: • Unless otherwise noted, all reactions are magnetically stirred. Unless otherwise noted, when diethyl ether is used in the experiments described below, it is Fisher ACS certified material and is stabilized with BHT. Unless otherwise noted, “concentrated” and/or “solvent removed under reduced pressure” means evaporating the solvent from a solution or mixture using a rotary evaporator or vacuum pump. Unless otherwise noted, flash chromatography is carried out on a Teledyne Isco (Lincoln, NE), Analogix (Burlington, WI), or Biotage (Stockholm, SWE) automated chromatography system using a commercially available cartridge as the column. Columns may be purchased from Teledyne Isco, Analogix, Biotage, Varian (Palo Alto, CA), or Supelco (Bellefonte, PA) and are usually filled with silica gel as the stationary phase. Reverse phase prep-HPLC conditions, where used, can be found at the end of each experimental section. Aqueous solutions were concentrated on a Genevac (Ipswich, ENG) or by freeze-drying/lyophilization. Unless otherwise noted, all LRRK2 pIC50 data presented in tables refers to the LRRK2 G2019S Km ATP LanthaScreen™ assay (Life Technologies Corp., Carlsbad, CA) that is described in the Biological Assay section.
The pIC50 values reported herein were measured as follows.
Biological Assay: LRRK2 Km ATP LanthaScreen™ Assay
Compound potency against LRRK2 kinase activity was determined using LanthaScreen™ technology from Life Technologies Corporation (Carlsbad, CA) using a GST20 tagged truncated human mutant G2019S LRRK2 in the presence of the fluorescein-labeled peptide substrate LRRKtide® (LRRK2 phosphorylated ezrin/radixin/moesin (ERM)), also from Life Technologies. The data presented for the Km ATP LanthaScreen™ Assay represents mean IC50 values based on several test results and may have reasonable deviations depending on the specific conditions and reagents used. Km is the Michaelis constant of an enzyme and is defined as the concentration of native substrate (ATP for a kinase) which permits the enzyme to achieve half Vmax (Vmax=rate of reaction when the enzyme is saturated with substrate). IC50 (half-maximal inhibitory concentration) represents the concentration of inhibitor required to inhibit LRRK2 kinase activity by 50%. Assays were performed in the presence of 134 μM ATP (Km ATP). Upon completion, the assay was stopped, and phosphorylated substrate detected with a terbium (Tb)-labeled anti-pERM antibody (cat. no. PV4898). The compound dose response was prepared by diluting a 10 mM stock of compound to a maximum concentration of 9.99 μM in 100% DMSO, followed by custom fold serial dilution in DMSO nine times. 20 nL of each dilution was spotted via a Labcyte Echo onto a 384-well black-sided plate (Corning 3575) followed by 15 μl of a 1.25 nM enzyme solution in 1× assay buffer (50 mM Tris pH 8.5, 10 mM MgCl2, 0.01% Brij-35, 1 mM EGTA, 2 mM dithiothreitol, 0.05 mM sodium orthovanadate). Following a 15-minute incubation period at RT, the kinase reaction was started with the addition of 5 μl of 400 nM fluorescein-labeled LRRKtide® (LRRK2 phosphorylated ezrin/radixin/moesin (ERM)) peptide substrate and 134 μM ATP solution in 1× assay buffer. The reaction was allowed to progress at ambient temperature for 90 minutes. The reaction was then stopped by the addition of 20 μl of TR-FRET Dilution Buffer (Life Technologies, Carlsbad, CA) containing 2 nM Tb-labeled anti-phospho LRRKtide® (LRRK2 phosphorylated ezrin/radixin/moesin (ERM)) antibody and 10 mM EDTA (Life Technologies, Carlsbad, CA). After an incubation period of 1 h at RT, the plate was read on an EnVision® multimode plate reader (Perkin Elmer, Waltham, MA) with an excitation wavelength of 337 nm (Laser) and a reading emission at both 520 and 495 nm. Compound IC50 values were interpolated from nonlinear regression best-fits of the log of the final compound concentration, plotted as a function of the 520/495-nm emission ratio using activity base “Abase”). […]

Chain of GST tagged truncated human mutant G2019S LRRK2 (Q5S007 970-2527 G2019S): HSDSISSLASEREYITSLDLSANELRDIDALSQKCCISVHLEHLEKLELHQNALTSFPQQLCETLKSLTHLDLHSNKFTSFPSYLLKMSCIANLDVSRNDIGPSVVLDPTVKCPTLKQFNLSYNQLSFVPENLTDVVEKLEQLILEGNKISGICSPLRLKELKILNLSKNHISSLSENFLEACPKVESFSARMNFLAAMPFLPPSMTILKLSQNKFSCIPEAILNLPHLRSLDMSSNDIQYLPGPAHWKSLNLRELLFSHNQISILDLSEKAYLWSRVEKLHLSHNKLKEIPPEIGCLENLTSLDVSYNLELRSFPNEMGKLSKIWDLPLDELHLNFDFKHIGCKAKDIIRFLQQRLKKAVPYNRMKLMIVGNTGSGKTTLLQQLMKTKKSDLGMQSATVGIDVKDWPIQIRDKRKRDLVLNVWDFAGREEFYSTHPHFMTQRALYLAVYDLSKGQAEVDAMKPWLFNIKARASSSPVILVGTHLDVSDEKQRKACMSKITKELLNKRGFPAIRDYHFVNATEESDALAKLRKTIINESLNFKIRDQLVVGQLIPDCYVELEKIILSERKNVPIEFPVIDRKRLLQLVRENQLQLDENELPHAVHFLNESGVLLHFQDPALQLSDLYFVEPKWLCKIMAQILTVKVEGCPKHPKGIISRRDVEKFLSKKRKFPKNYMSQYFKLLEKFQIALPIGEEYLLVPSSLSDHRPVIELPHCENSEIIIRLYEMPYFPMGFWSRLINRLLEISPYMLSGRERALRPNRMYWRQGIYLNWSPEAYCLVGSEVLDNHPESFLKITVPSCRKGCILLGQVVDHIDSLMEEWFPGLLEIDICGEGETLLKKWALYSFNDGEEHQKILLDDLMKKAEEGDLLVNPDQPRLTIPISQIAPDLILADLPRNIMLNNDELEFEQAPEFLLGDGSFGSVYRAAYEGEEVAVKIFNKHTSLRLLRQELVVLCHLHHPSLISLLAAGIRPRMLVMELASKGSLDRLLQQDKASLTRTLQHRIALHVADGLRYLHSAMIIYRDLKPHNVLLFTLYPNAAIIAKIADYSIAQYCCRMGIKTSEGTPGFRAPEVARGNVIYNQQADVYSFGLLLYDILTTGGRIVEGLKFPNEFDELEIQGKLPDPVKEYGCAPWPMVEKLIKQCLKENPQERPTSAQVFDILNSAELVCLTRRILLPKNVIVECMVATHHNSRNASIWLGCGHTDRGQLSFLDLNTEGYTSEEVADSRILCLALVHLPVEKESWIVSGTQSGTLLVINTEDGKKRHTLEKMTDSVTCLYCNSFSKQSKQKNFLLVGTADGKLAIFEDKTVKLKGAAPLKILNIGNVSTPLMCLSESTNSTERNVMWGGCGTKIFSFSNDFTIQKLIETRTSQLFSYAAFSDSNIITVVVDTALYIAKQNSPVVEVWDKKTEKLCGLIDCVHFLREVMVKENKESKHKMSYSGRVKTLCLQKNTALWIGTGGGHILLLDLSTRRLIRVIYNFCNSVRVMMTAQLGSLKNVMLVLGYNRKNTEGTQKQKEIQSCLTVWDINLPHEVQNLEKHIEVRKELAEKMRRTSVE

CC(C)(O)Cn1ncc(Nc2ncc3cc(Cl)c(C4(F)CCN(C5COC5)CC4)cc3n2)c1Cl [Ex-4.86, 1-[5-chloro-4-({6-chloro-7-[4-fluoro-1-(oxetan-3-yl)piperidin-4-yl]quinazolin-2-yl}amino)-1H-pyrazol-1-yl]-2-methylpropan-2-ol]
LRRK2 pIC50: 8.09

FC1COCC1N1CC[C@H](c2cc3nc(Nc4cnn(C5CC5(F)F)c4Cl)ncc3cc2Cl)C(F)C1 (some centres unmarked) [Ex-7.2]
LRRK2 pIC50: >9.20

Cn1ncc(Nc2ncc3cc(Cl)c(C4CCN([C@H]5COC[C@H]5O)CC4)cc3n2)c1Cl (single isomer, unassigned) [Ex-2.66, (3S,4S) or (3R,4R) 4-(4-{6-chloro-2-[(5-chloro-1-methyl-1H-pyrazol-4-yl)amino]quinazolin-7-yl}piperidin-1-yl)oxolan-3-ol]
LRRK2 pIC50: >9.20

O=S1(=O)CC(N2CC[C@@H](c3cc4nc(Nc5cnn(C6CC6(F)F)c5Cl)ncc4cc3Cl)[C@H](F)C2)C1 (single isomer, unassigned) [Ex-4.124, (S)(3S,4S) or (S)(3R,4R) or (R)(3S,4S) or (R)(3R,4R) 3-[4-(6-chloro-2-{[5-chloro-1-(2,2-difluorocyclopropyl)-1H-pyrazol-4-yl]amino}quinazolin-7-yl)-3-fluoropiperidin-1-yl]thietane 1,1-dioxide]
LRRK2 pIC50: 8.91

O[C@@H]1COCC1N1CC[C@H](c2cc3nc(Nc4cnn(C5CC5(F)F)c4Cl)ncc3cc2Cl)[C@@H](F)C1 (single isomer, unassigned) [Ex-4.125, (R)(3S,4S)(3S,4S) or (R)(3S,4S)(3R,4R) or (R)(3R,4R)(3S,4S) or (R)(3R,4R)(3R,4R) or (S)(3S,4S)(3S,4S) or (S)(3S,4S)(3R,4R) or (S)(3R,4R)(3S,4S) or (S)(3R,4R)(3R,4R) 4-(6-chloro-2-{[5-chloro-1-(2,2-difluorocyclopropyl)-1H-pyrazol-4-yl]amino}quinazolin-7-yl)-3-fluoropiperidin-1-yl]oxolan-3-ol]
LRRK2 pIC50: 8.16

CC1(N2CC[C@H](c3cc4nc(Nc5cnn(C6CC6(F)F)c5Cl)ncc4cc3Cl)[C@@H](F)C2)COC[C@@H]1O (single isomer, unassigned) [Ex-4.10, (R)(3S,4S)(3S,4S) or (R)(3S,4S)(3R,4R) or (R)(3R,4R)(3S,4S) or (R)(3R,4R)(3R,4R) or (S)(3S,4S)(3S,4S) or (S)(3S,4S)(3R,4R) or (S)(3R,4R)(3S,4S) or (S)(3R,4R)(3R,4R) 4-(6-chloro-2-((5-chloro-1-(2,2-difluorocyclopropyl)-1H-pyrazol-4-yl)amino)quinazolin-7-yl)-3-fluoropiperidin-1-yl)-4-methyltetrahydrofuran-3-ol]
LRRK2 pIC50: >9.20

Cn1ncc(Nc2ncc3cc(Cl)c([C@@H]4CCN([C@@]5(C)COC[C@H]5O)C[C@H]4F)cc3n2)c1Cl (single isomer, unassigned) [Ex-4.234, (3S,4S)(3S,4S) or (3S,4S)(3R,4R) or (3R,4R)(3S,4S) or (3R,4R)(3R,4R) 4-(4-{6-chloro-2-[(5-chloro-1-methyl-1H-pyrazol-4-yl)amino]quinazolin-7-yl}-3-fluoropiperidin-1-yl)-4-methyloxolan-3-ol]
LRRK2 pIC50: 7.23

Cc1c(Nc2ncc3cc(Cl)c([C@H]4CCN(C5COC5)C[C@@H]4F)cc3n2)cnn1C1CC1(F)F (single isomer, unassigned) [Ex-4.175, (R)(3S,4S) or (S)(3S,4S) or (R)(3R,4R) or (S)(3R,4R) 6-chloro-N-[1-(2,2-difluorocyclopropyl)-5-methyl-1H-pyrazol-4-yl]-7-[(3R,4R)-3-fluoro-1-(oxetan-3-yl)piperidin-4-yl]quinazolin-2-amine]
LRRK2 pIC50: 9.10

CC1(n2ncc(Nc3ncc4cc(Cl)c(C5CCN(C(F)(F)F)CC5)cc4n3)c2Cl)CC1 [Ex-4.7, 6-chloro-N-(5-chloro-1-(1-methylcyclopropyl)-1H-pyrazol-4-yl)-7-(1-(trifluoromethyl)piperidin-4-yl)quinazolin-2-amine]
LRRK2 pIC50: 7.74

CC(O)(Cn1ncc(Nc2ncc3cc(Cl)c(C4CCN(C5COC5)CC4)cc3n2)c1Cl)C(F)(F)F (single isomer, unassigned) [Ex-8.25, (S) or (R) 3-[5-chloro-4-({6-chloro-7-[1-(oxetan-3-yl)piperidin-4-yl]quinazolin-2-yl}amino)-1H-pyrazol-1-yl]-1,1,1-trifluoro-2-methylpropan-2-ol]
IC50: < 0.631 nM

CC1(N2CCC(c3cc4nc(Nc5cnn(C67CC(C6)C7)c5)ncc4cc3Cl)CC2)COC1 [Ex-2.18, N-(1-(bicyclo[1.1.1]pentan-1-yl)-1H-pyrazol-4-yl)-6-chloro-7-(1-(3-methyloxetan-3-yl)piperidin-4-yl)quinazolin-2-amine]
IC50: < 0.631 nM

Cn1ncc(Nc2ncc3cc(Cl)c([C@@H]4CCN([C@@H]5COC[C@@H]5O)C[C@H]4F)cc3n2)c1Cl (single isomer, unassigned) [Ex-4.186, (3S,4S)(3S,4S) or (3S,4S)(3R,4R) or (3R,4R)(3S,4S) or (3R,4R)(3R,4R) 4-(4-{6-chloro-2-[(5-chloro-1-methyl-1H-pyrazol-4-yl)amino]quinazolin-7-yl}-3-fluoropiperidin-1-yl)oxolan-3-ol]
LRRK2 pIC50: 7.95

CC1(N2CCC(n3ncc(Nc4ncc5cc(Cl)c(C6CC6(F)F)cc5n4)c3Cl)C(F)C2)COC1 (single isomer, unassigned) [Ex-3.2, (3R,4R)(7S) or (3R,4R)(7R) or (3S,4S)(7S) or (3S,4S)(7R) 6-chloro-N-(5-chloro-1-(3-fluoro-1-(3-methyloxetan-3-yl)piperidin-4-yl)-1H-pyrazol-4-yl)-7-(2,2-difluorocyclopropyl)quinazolin-2-amine]
LRRK2 pIC50: 7.07

Cc1nsc(Nc2ncc3cc(Cl)c([C@@H]4CCN(C5COC5)C[C@H]4F)cc3n2)c1Cl (single isomer, unassigned) [Ex-4.87, (3S,4S) or (3R,4R) 6-chloro-N-(4-chloro-3-methyl-1,2-thiazol-5-yl)-7-[3-fluoro-1-(oxetan-3-yl)piperidin-4-yl]quinazolin-2-amine]
IC50: 12.6 nM

CC1(n2ncc(Nc3ncc4cc(Cl)c(C5CCN(C6COC6)C5)cc4n3)c2Cl)CC1 (single isomer, unassigned) [Ex-4.25, (S) or (R) 6-chloro-N-[5-chloro-1-(1-methylcyclopropyl)-1H-pyrazol-4-yl]-7-[1-(oxetan-3-yl)pyrrolidin-3-yl]quinazolin-2-amine]
IC50: 3.09 nM

[2H]C([2H])([2H])n1ncc(Nc2ncc3cc(Cl)c(C4CCN([C@]5(C)COC[C@@H]5O)CC4)cc3n2)c1Cl (single isomer, unassigned) [Ex-1.27, (3S,4S) or (3R,4R)-4-(4-(6-chloro-2-((5-chloro-1-(methyl-d3)-1H-pyrazol-4-yl)amino)quinazolin-7-yl)piperidin-1-yl)-4-methyltetrahydrofuran-3-ol]
LRRK2 pIC50: >9.20

Cc1nn(C)c(Nc2ncc3cc(Cl)c(C4CCN([C@]5(C)COC[C@@H]5O)CC4)cc3n2)c1C#N (single isomer, unassigned) [Ex-2.86, (3S,4S) or (3R,4R) 5-({6-chloro-7-[1-(4-hydroxy-3-methyloxolan-3-yl)piperidin-4-yl]quinazolin-2-yl}amino)-l,3-dimethyl-1H-pyrazole-4-carbonitrile]
LRRK2 pIC50: 8.05
